Experimental data from PubChem BioAssay (NCI).
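Briefly, cells in 96-well plates were exposed to five compound concentrations for 48 h, and endpoints were estimated by linear interpolation. TGI is the concentration that stops growth completely.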

What was measured:
Assay in all cases: DTP human tumour cell line panel, 48 h
OVCAR-5 ovarian = system: OVCAR-5 ovarian
MALME-3M melanoma = system: MALME-3M melanoma
SF-268 CNS = system: SF-268 CNS
MOLT-4 leukemia = system: MOLT-4 leukemia
OVCAR-4 ovarian = system: OVCAR-4 ovarian
HS 578T breast = system: HS 578T breast
SK-OV-3 ovarian = system: SK-OV-3 ovarian
RXF 393 renal = system: RXF 393 renal
UACC-62 melanoma = system: UACC-62 melanoma
COLO 205 colon = system: COLO 205 colon

Q: How did the TGI (OVCAR-5 ovarian) turn out when `N#Cc1cc(Sc2ccc(N)c(C#N)c2)ccc1N` was run?
A: > 100 µM

Q: And the TGI (MALME-3M melanoma)?
A: 36.4 µM

Q: What about the TGI (SF-268 CNS) of the same compound?
A: 59 µM

Q: What about the TGI (MOLT-4 leukemia) of the same compound?
A: > 100 µM

Q: And the TGI (OVCAR-4 ovarian)?
A: 98.8 µM

Q: What about the TGI (HS 578T breast) of the same compound?
A: 39.3 µM

Q: And the TGI (SK-OV-3 ovarian)?
A: > 100 µM

Q: And the TGI (RXF 393 renal)?
A: > 100 µM

Q: What about the TGI (UACC-62 melanoma) of the same compound?
A: > 100 µM

Q: And the TGI (COLO 205 colon)?
A: 23.7 µM

Q: What does the source list for `O[C@@H]1CCC[C@@H]2NC[C@@H](c3ccc4c(c3)OCO4)[C@H]12`?
A: TGI (OVCAR-5 ovarian): > 100 µM; TGI (MALME-3M melanoma): > 100 µM; TGI (SF-268 CNS): > 100 µM; TGI (MOLT-4 leukemia): > 100 µM; TGI (OVCAR-4 ovarian): > 100 µM; TGI (HS 578T breast): > 100 µM; TGI (SK-OV-3 ovarian): > 100 µM; TGI (RXF 393 renal): > 100 µM; TGI (UACC-62 melanoma): > 100 µM; TGI (COLO 205 colon): > 100 µM

Q: Which TGI (OVCAR-5 ovarian) does the source give for `C/C=C(\C)C(=O)O[C@@H]1CC(C)(C)CC2C3=CCC4[C@]56CC[C@](O)(OC5)C(C)(C)C6CC[C@@]4(C)C3(C)CC[C@]21C(=O)O` (stereo not given in full) here?
A: > 100 µM

Q: What about the TGI (MALME-3M melanoma) of the same compound?
A: > 100 µM

Q: And the TGI (SF-268 CNS)?
A: > 100 µM

Q: What about the TGI (MOLT-4 leukemia) of the same compound?
A: > 100 µM

Q: And the TGI (OVCAR-4 ovarian)?
A: > 100 µM

Q: What about the TGI (HS 578T breast) of the same compound?
A: > 100 µM

Q: What about the TGI (SK-OV-3 ovarian) of the same compound?
A: > 100 µM

Q: And the TGI (RXF 393 renal)?
A: > 100 µM

Q: What about the TGI (UACC-62 melanoma) of the same compound?
A: > 100 µM

Q: What about the TGI (COLO 205 colon) of the same compound?
A: > 100 µM

Q: For `CCC(CC)(CO)CNc1cc(Cl)nc(N)n1`, which TGI (OVCAR-5 ovarian) is on record?
A: > 100 µM

Q: And the TGI (MALME-3M melanoma)?
A: > 100 µM

Q: And the TGI (SF-268 CNS)?
A: > 100 µM

Q: What about the TGI (MOLT-4 leukemia) of the same compound?
A: > 100 µM

Q: And the TGI (OVCAR-4 ovarian)?
A: > 100 µM

Q: And the TGI (HS 578T breast)?
A: > 100 µM

Q: And the TGI (SK-OV-3 ovarian)?
A: > 100 µM

Q: And the TGI (RXF 393 renal)?
A: > 100 µM

Q: What about the TGI (UACC-62 melanoma) of the same compound?
A: > 100 µM

Q: And the TGI (COLO 205 colon)?
A: > 100 µM

Q: Which results are given for `CCCCCCCCP(=O)(O)OP(=O)(O)OCC1OC(n2ccc(N)nc2=O)C(O)C1O` (stereo not given)?
A: TGI (OVCAR-5 ovarian): > 100 µM; TGI (MALME-3M melanoma): > 100 µM; TGI (SF-268 CNS): > 100 µM; TGI (MOLT-4 leukemia): > 100 µM; TGI (OVCAR-4 ovarian): > 100 µM; TGI (HS 578T breast): > 100 µM; TGI (SK-OV-3 ovarian): > 100 µM; TGI (RXF 393 renal): > 100 µM; TGI (UACC-62 melanoma): > 100 µM; TGI (COLO 205 colon): > 100 µM
